IC50 data for 57 compounds are collected here from patent US20220267260A1, “COMPOUNDS CONTAINING A SULFONIC GROUP AS KAT INHIBITORS” (Epizyme, Inc., priority 2016, published 2022).

Molecules are shown by their SMILES. Bounds are passed on as bounds.

The target of one assay is T1, KAT5 (Homo sapiens, UniProt Q92993).
T1 construct: His-TEV tag (N, cleaved yes); made in house
Briefly: KAT5 enzyme inhibition assay (SAMDI mass spectrometry). Format: biochemical. Conditions: His-TEV-FL KAT5-Flag enzyme construct.

In a further assay the target is T2, KAT6A (Homo sapiens, UniProt Q92794).
T2 construct: His-TEV tag (N, cleaved yes); made in house
Kind of assay: KAT6A enzyme inhibition assay (SAMDI mass spectrometry). The note with it: His-TEV-KAT6A 501-784 enzyme construct. Format: biochemical.

T2 sequence (Q92794 with tags, fused parts or gaps): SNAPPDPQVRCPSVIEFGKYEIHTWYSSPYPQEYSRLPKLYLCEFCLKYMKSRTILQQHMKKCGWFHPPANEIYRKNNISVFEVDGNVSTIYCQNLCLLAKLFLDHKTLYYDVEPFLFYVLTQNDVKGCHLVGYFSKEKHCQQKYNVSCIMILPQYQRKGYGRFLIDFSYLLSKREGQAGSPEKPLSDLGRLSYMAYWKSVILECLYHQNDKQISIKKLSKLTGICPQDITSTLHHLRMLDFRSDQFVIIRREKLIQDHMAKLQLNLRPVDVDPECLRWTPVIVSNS
T1 sequence (Q92993 with tags, fused parts or gaps): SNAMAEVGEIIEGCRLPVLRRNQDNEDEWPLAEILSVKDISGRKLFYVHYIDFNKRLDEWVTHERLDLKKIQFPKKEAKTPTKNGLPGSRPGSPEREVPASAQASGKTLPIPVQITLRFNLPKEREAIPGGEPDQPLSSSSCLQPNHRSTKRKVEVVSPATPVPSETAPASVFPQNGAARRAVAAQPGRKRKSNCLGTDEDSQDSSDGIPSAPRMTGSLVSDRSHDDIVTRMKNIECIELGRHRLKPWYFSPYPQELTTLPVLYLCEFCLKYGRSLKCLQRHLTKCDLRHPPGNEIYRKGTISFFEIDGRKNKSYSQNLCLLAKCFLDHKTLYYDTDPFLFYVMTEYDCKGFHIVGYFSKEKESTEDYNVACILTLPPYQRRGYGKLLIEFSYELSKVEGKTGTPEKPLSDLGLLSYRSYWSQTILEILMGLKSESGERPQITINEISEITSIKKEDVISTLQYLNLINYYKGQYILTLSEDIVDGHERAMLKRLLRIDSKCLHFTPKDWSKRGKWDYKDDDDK

On to `Cc1cc(-c2cccc(C(=O)N(C)C)c2)cc(C(=O)NNS(=O)(=O)C2CCCCC2)c1F` [Compound I-378], for which the IC50 on KAT5 was 50 to 100 µM; at KAT6A, above 100 µM.

With `Cc1cccc(-c2cc(Cl)c(F)c(C(=O)NNS(=O)(=O)CC3CCN(C(=O)OC(C)(C)C)C3)c2)c1` (stereo not drawn) [Compound I-516], the half-inhibitory concentration (IC50) on KAT5 is at most 10 µM; against KAT6A, above 100 µM.

In the case of `O=C(NNS(=O)(=O)c1ccccc1)c1ccc(F)cc1` [Compound I-193], the IC50 against KAT5 is above 100 µM; at KAT6A, 50 to 100 µM.

As to `Cc1cc(Cl)cc(C(=O)NNS(=O)(=O)CC2CCCCC2)c1F` [Compound I-276], the IC50 is at most 10 µM at KAT5 and 10 to 50 µM at KAT6A.

On to `Cc1cc(-c2cccc(F)c2)cc(C(=O)NNS(=O)(=O)C2CCOCC2)c1F` [Compound I-377], for which the IC50 against KAT5 and on KAT6A was at most 10 µM each time.

With `COCCN1CCC(C(C)S(=O)(=O)NNC(=O)c2cc(-c3ccccc3)cc(C)c2F)CC1` (stereo not drawn) [Compound I-277], the IC50 on KAT5 and on KAT6A was 10 to 50 µM throughout.

Regarding `COc1ccccc1-c1cc(C)c(F)c(C(=O)NNS(=O)(=O)CC2CCCCC2)c1` [Compound I-370], the figures for the IC50 on KAT5 and at KAT6A were 10 to 50 µM and above 100 µM, respectively.

Turning to `Cc1cc(-c2ccccc2)cc(C(=O)NNS(=O)(=O)CC2CCCN(C(=O)OC(C)(C)C)C2)c1F` (stereo not drawn) [Compound I-352], the IC50 on KAT5 and against KAT6A was at most 10 µM in each case.

In the case of `Cn1ncc2c(C(=O)NNS(=O)(=O)c3ccccc3)cc(-c3ccccc3)cc21` [Compound I-20], the IC50 on KAT5 and on KAT6A was above 100 µM each time.

`COCCOc1cccc(-c2cc(C)c(F)c(C(=O)NNS(=O)(=O)c3ccccc3)c2)c1` [Compound I-279]: the IC50 at KAT5 is 10 to 50 µM; against KAT6A it was at most 10 µM.

Consider `O=C(NNS(=O)(=O)c1ccc(Cl)cc1)c1c(F)ccc(-c2ccccc2)c1F` [Compound I-156], for which the figures for the IC50 against KAT5 and on KAT6A were 10 to 50 µM and at most 10 µM, respectively.

As for `Cc1cc(C(C)(C)C)cc(C(=O)NNS(=O)(=O)c2ccccc2)c1O` [Compound I-462], the IC50 against KAT5 and against KAT6A was above 100 µM in each case.

Turning to `O=C(NNS(=O)(=O)c1ccccc1)c1c(F)ccc2ccccc12` [Compound I-236], the IC50 on KAT5 and at KAT6A was above 100 µM each time.

Consider `Cn1cnc2c(C(=O)NNS(=O)(=O)C3CCCCC3)cc(-c3ccccc3)cc21` [Compound I-283], for which the IC50 against KAT5 and on KAT6A was above 100 µM each time.

In the case of `Cc1cccc(-c2cc(C)c(F)c(C(=O)NNS(=O)(=O)c3ccccc3)c2)c1` [Compound I-326], the IC50 at KAT5 and on KAT6A was at most 10 µM each time.

For `O=C(NNS(=O)(=O)c1cccc(Cl)c1)c1cc(-c2ccccc2)ccc1F` [Compound I-152], the IC50 is 10 to 50 µM on KAT5 and at most 10 µM at KAT6A.

Take `COCCNC(=O)c1cccc(-c2cc(C)c(F)c(C(=O)NNS(=O)(=O)C3CCCCC3)c2)c1` [Compound I-445]: the figures for the IC50 on KAT5 and at KAT6A were 10 to 50 µM and above 100 µM, respectively.

As for `O=C(NNS(=O)(=O)C1CCCCC1)c1c(F)ccc(-c2ccccc2)c1F` [Compound I-364], the IC50 against KAT5 and against KAT6A was 50 to 100 µM each time.

As to `CCS(=O)(=O)NNC(=O)c1cc(-c2ccccc2)cc(C)c1F` [Compound I-2], the IC50 against KAT5 and on KAT6A was 10 to 50 µM in each case.

Consider `Cc1cc(-c2cccc(Cl)c2)cc(C(=O)NNS(=O)(=O)C2CCCCC2)c1F` [Compound I-358], for which the figures for the IC50 against KAT5 and against KAT6A were at most 10 µM and 10 to 50 µM, respectively.

In the case of `Cc1cc(-c2ccccc2)cc(C(=O)NNS(=O)(=O)C2CCNC2)c1F` (stereo not drawn) [Compound I-23], the IC50 at KAT5 and against KAT6A was 10 to 50 µM each time.

On to `O=C(NS(=O)(=O)Nc1ccccc1)c1c(F)ccc(-c2ccccc2)c1F` [Compound I-212], for which the IC50 on KAT5 is above 100 µM; at KAT6A it was 50 to 100 µM.

Consider `COc1cc(Cl)c(F)c(C(=O)NNS(=O)(=O)CC2CCCCC2)c1` [Compound I-394], for which the half-inhibitory concentration (IC50) on KAT5 is at most 10 µM; against KAT6A, 10 to 50 µM.

On to `O=C(NNS(=O)(=O)c1ccccc1Cl)c1ccccc1F` [Compound I-130], for which the IC50 against KAT5 and against KAT6A was above 100 µM in each case.

In the case of `Cn1cc2c(C(=O)NNS(=O)(=O)c3ccccc3)cc(-c3ccccc3)cc2n1` [Compound I-345], the IC50 on KAT5 and on KAT6A was above 100 µM each time.

As for `Nc1ccc(-c2cc(Cl)c(F)c(C(=O)NNS(=O)(=O)C3CCOCC3)c2)cc1` [Compound I-455], the IC50 on KAT5 is 10 to 50 µM; against KAT6A, above 100 µM.

Regarding `O=C(NNS(=O)(=O)CC1CCOCC1)c1cc(Cl)cc(Cl)c1F` [Compound I-412], the IC50 against KAT5 is 10 to 50 µM; at KAT6A, above 100 µM.

Take `O=C(NNS(=O)(=O)c1cccc(-c2ccccc2)c1)c1ccccc1` [Compound I-521]: the IC50 at KAT5 and on KAT6A was above 100 µM throughout.

In the case of `Cc1nn(CC(=O)NCCO)c(C(=O)NNS(=O)(=O)C2CCCCC2)c1F` [Compound I-504], the IC50 on KAT5 and at KAT6A was above 100 µM in each case.

Consider `O=S(=O)(NNc1n[nH]c2cccc(F)c12)c1ccccc1` [Compound I-45], for which the half-maximal inhibitory concentration (IC50) against KAT5 and on KAT6A was above 100 µM each time.

As for `COCC(=O)N1CCCC(CS(=O)(=O)NNC(=O)c2cc(-c3cccc(F)c3)cc(Cl)c2F)C1` (stereo not drawn) [Compound I-418], the IC50 against KAT5 and at KAT6A was at most 10 µM throughout.

Turning to `CCc1cccc(S(=O)(=O)NNC(=O)c2cc(-c3ccccc3)cc(C)c2F)c1` [Compound I-221], the half-inhibitory concentration (IC50) was 10 to 50 µM at KAT5 and at most 10 µM at KAT6A.

On to `Cc1cccc(S(=O)(=O)NNC(=O)c2cccc(-c3ccccc3)c2F)c1` [Compound I-226], for which the IC50 at KAT5 was above 100 µM; against KAT6A it was at most 10 µM.

For `O=C(NNS(=O)(=O)c1ccc2ccccc2c1)c1cccc(-c2ccccc2)c1` [Compound I-246], the IC50 is 50 to 100 µM against KAT5 and at most 10 µM against KAT6A.

For the compound `CCN1CCCC(S(=O)(=O)NNC(=O)c2cc(-c3ccccc3)cc(C)c2F)C1` (stereo not drawn) [Compound I-99], the IC50 at KAT5 was above 100 µM; on KAT6A, 10 to 50 µM.

As to `CC(=O)N1CCC(CS(=O)(=O)NNC(=O)c2cc(-c3cccc(F)c3)cc(C)c2F)CC1` [Compound I-388], the IC50 at KAT5 and against KAT6A was at most 10 µM each time.

Take `CNCCC(=O)N1CCCC(CS(=O)(=O)NNC(=O)c2cc(-c3ccccc3)cc(C)c2F)C1` (stereo not drawn) [Compound I-333]: the 50% inhibitory concentration (IC50) at KAT5 and on KAT6A was 10 to 50 µM throughout.

For `O=C(NNS(=O)(=O)C1CCOCC1)c1cc(-c2cccc(CO)c2)cc(Cl)c1F` [Compound I-482], the IC50 against KAT5 and on KAT6A was 10 to 50 µM throughout.

Turning to `O=C(NNS(=O)(=O)c1ccccc1)c1cc(-c2ccccc2)ccc1F` [Compound I-253], the IC50 against KAT5 was 50 to 100 µM; on KAT6A, 10 to 50 µM.

In the case of `O=S(=O)(NNc1n[nH]c2ccc(-c3ccccc3)cc12)c1ccccc1` [Compound I-46], the IC50 at KAT5 and against KAT6A was above 100 µM throughout.

Take `CC(=O)N1CCC(S(=O)(=O)NNC(=O)c2cc(Cl)cc(Cl)c2F)CC1` [Compound I-435]: the IC50 against KAT5 and against KAT6A was above 100 µM throughout.

For the compound `O=C(NNS(=O)(=O)c1ccccc1)c1cnn(-c2ccccc2)c1` [Compound I-197], the IC50 against KAT5 and against KAT6A was above 100 µM each time.

On to `COc1ccccc1S(=O)(=O)NNC(=O)c1ccccc1F` [Compound I-174], for which the IC50 against KAT5 and against KAT6A was above 100 µM each time.

`Cc1cc(-c2ccccc2)cc(C(=O)NNS(=O)(=O)CC2CCNCC2)c1F` [Compound I-141]: the IC50 on KAT5 is 50 to 100 µM; on KAT6A, above 100 µM.

Regarding `O=C(NNS(=O)(=O)c1ccccc1)c1n[nH]c2ccccc12` [Compound I-196], the half-inhibitory concentration (IC50) was above 100 µM against KAT5 and 50 to 100 µM against KAT6A.

As to `O=C(NNS(=O)(=O)C1CCCCC1)c1c(F)c(-c2ccccc2)cc2nc[nH]c12` [Compound I-467], the IC50 against KAT5 and against KAT6A was above 100 µM in each case.

As for `CCc1cc(C)c(F)c(C(=O)NNS(=O)(=O)C2CCCCC2)c1` [Compound I-300], the figures for the half-maximal inhibitory concentration (IC50) on KAT5 and against KAT6A were 10 to 50 µM and 50 to 100 µM, respectively.

Regarding `Cc1cc(Cl)cc(C(=O)NNS(=O)(=O)C2CCCCC2)c1F` [Compound I-299], the IC50 against KAT5 lay within 10 to 50 µM; against KAT6A, 50 to 100 µM.

As for `Cc1cc(-c2ccccc2F)cc(C(=O)NNS(=O)(=O)CC2CCCCC2)c1F` [Compound I-269], the concentration for half-maximal inhibition (IC50) was at most 10 µM against KAT5 and 10 to 50 µM against KAT6A.

For the compound `Cc1cc(-c2ccccc2)cc(C(=O)NNS(=O)(=O)C2CCN(C(=O)C(C)C)C2)c1F` (stereo not drawn) [Compound I-105], the concentration for half-maximal inhibition (IC50) on KAT5 and on KAT6A was 10 to 50 µM each time.

For the compound `O=C(NNS(=O)(=O)c1ccccc1)c1c(F)ccc(-c2ccccc2)c1F` [Compound I-10], the concentration for half-maximal inhibition (IC50) against KAT5 and against KAT6A was above 100 µM throughout.

Turning to `Cc1cc(-c2ccccc2)cc(C(=O)NNS(=O)(=O)C(C)C2CCN(C(=O)OC(C)(C)C)CC2)c1F` (stereo not drawn) [Compound I-307], the IC50 against KAT5 is 10 to 50 µM; at KAT6A it was at most 10 µM.

Consider `Cc1cc(-c2cccc(Cl)c2F)cc(C(=O)NNS(=O)(=O)CC2CCCCC2)c1F` [Compound I-366], for which the IC50 against KAT5 lay in the range of 10 to 50 µM; at KAT6A, 50 to 100 µM.

For the compound `Cc1cc(-c2ccccc2)cc(C(=O)NNS(=O)(=O)c2cccc(OCc3ccccc3)c2)c1F` [Compound I-210], the IC50 against KAT5 and on KAT6A was at most 10 µM throughout.

As for `COCC(=O)N1CCC(CS(=O)(=O)NNC(=O)c2cc(-c3ccccc3)cc(C)c2F)CC1` [Compound I-344], the IC50 against KAT5 and against KAT6A was at most 10 µM throughout.

`COCCNC(=O)c1cccc(-c2cc(C)c(F)c(C(=O)NNS(=O)(=O)c3ccccc3)c2)c1` [Compound I-494]: the IC50 against KAT5 was 10 to 50 µM; against KAT6A, at most 10 µM.

Regarding `COCCC(=O)N1CCC(S(=O)(=O)NNC(=O)c2cc(-c3ccccc3)cc(C)c2F)C1` (stereo not drawn) [Compound I-106], the IC50 at KAT5 and on KAT6A was 10 to 50 µM in each case.

One may read the IC50 as the point on the concentration scale where inhibition reaches its midpoint. A high value points to weaker potency.
